A short description of the data set: Assay (IV) determination of solubility. Type of data set: physicochemical. The gist of the method:
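Stock ~500 nmol/ml in water; 1:1 with 100 mM buffer, pH 3.0–8.0 (glycylglycine ≤5.0, bistrispropane ≥6.0); 18 h RT; spin; HPLC quantitation of soluble polypeptide.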

The mark [1] stands for this setting: pH 3, pH 3.0, read-out: Solubility pH 3.0.
Setting [2] is: pH 4, pH 4.0, 18 hours at room temperature, Table 2, read-out: Solubility pH 4.0.
[3] abbreviates: pH 4, pH 4.0, read-out: Solubility pH 4.0.
Where [4] appears, read: pH 5, pH 5.0, read-out: Solubility pH 5.0.
The mark [5] stands for this setting: pH 6, pH 6.0, read-out: Solubility pH 6.0.
Setting [6] is: pH 6.5, pH 6.5, read-out: Solubility pH 6.5.
Where [7] appears, read: pH 7, pH 7.0, read-out: Solubility pH 7.0.
Where [8] appears, read: pH 7.5, pH 7.5, read-out: Solubility pH 7.5.

Values after ≈ are worked out from the molar mass of the structure shown. Read-outs that look alike come from different tables or passages of the source. Starred links: 1 amine or outer side, 2 acyl side, 3 side chain; linkers in the order of their positions; H or OH if unused. Positions of bridges follow the written chain, without caps; N, C: chain ends. Residues, ends and D or L forms follow the SMILES beside them. Groups on a side chain read outwards from the residue. *: point of attachment. C20 diacid = O=C(O)CCCCCCCCCCCCCCCCCCC(=O)*; γGlu = O=C(O)[C@H](CCC(=O)[*:2])N[*:1]; AEEA = NCCOCCOCC(=O)O A value given as a limit tells only on which side of the number the result lay.

Consider `CC[C@H](C)[C@H](NC(=O)[C@H](CCCCNC(=O)COCCOCCNC(=O)COCCOCCNC(=O)CC[C@H](NC(=O)CCCCCCCCCCCCCCCCCCC(=O)O)C(=O)O)NC(=O)CNC(=O)[C@H](Cc1ccccc1)NC(=O)[C@H](CC(N)=O)NC(=O)[C@H](CC(N)=O)NC(=O)[C@H](CO)NC(=O)[C@H](CO)NC(=O)[C@H](Cc1c[nH]cn1)NC(=O)[C@H](Cc1c[nH]cn1)NC(=O)[C@H](CC(C)C)NC(=O)[C@H](Cc1ccccc1)NC(=O)[C@H](CCC(=O)O)NC(=O)[C@H](C)NC(=O)[C@H](CC(C)C)NC(=O)[C@H](CCCNC(=N)N)NC(=O)[C@H](CCC(N)=O)NC(=O)[C@@H](NC(=O)[C@H](C)NC(=O)[C@@H]1CSSC[C@H](NC(=O)[C@@H](N)CCCCN)C(=O)N[C@@H](CC(N)=O)C(=O)N[C@@H]([C@@H](C)O)C(=O)N[C@@H](C)C(=O)N[C@@H]([C@@H](C)O)C(=O)N1)[C@@H](C)O)C(=O)N[C@@H](CC(C)C)C(=O)N[C@@H](CO)C(=O)N[C@@H](CO)C(=O)N[C@H](C(=O)N[C@@H](CC(N)=O)C(=O)N[C@H](C(=O)NCC(=O)N[C@@H](CO)C(=O)N[C@@H](Cc1c[nH]cn1)C(=O)N[C@H](C(=O)N[C@@H](Cc1ccc(O)cc1)C(N)=O)[C@@H](C)O)C(C)C)[C@@H](C)O` [Example 142, N-epsilon25-[2-(2-{2-[2-(2-{2-[(S)-4-Carboxy-4-(19-carboxyheptadecanoylamino)butyrylamino]ethoxy}ethoxy)acetylamino]ethoxy}ethoxy)acetyl]-[Glu14,His17,Lys25,Ser28,Ser29,His35]-pramlintide] (H-KCNTATCATQRLAEFLHHSSNNFGK([AEEA-AEEA-γGlu-C20 diacid])ILSSTNVGSHTY-NH2; disulfide 2-7), for which the solubility was greater than 200 µM under setting [1]; greater than 200 µM under setting [2]; greater than 200 µM under setting [3]; 185 µM (≈ 884 µg/mL) under setting [4]; 118 µM (≈ 564 µg/mL) under setting [5]; 1 µM (≈ 4.78 µg/mL) under setting [6]. In addition, the solubility under setting [7] was determined as 1 µM (≈ 4.78 µg/mL) and the solubility under setting [8] came to 1 µM (≈ 4.78 µg/mL).
As for `CC[C@H](C)[C@H](NC(=O)[C@@H]1CCCN1C(=O)CNC(=O)[C@H](Cc1ccccc1)NC(=O)[C@H](CC(N)=O)NC(=O)[C@H](CCCCNC(=O)COCCOCCNC(=O)COCCOCCNC(=O)CC[C@H](NC(=O)CCCCCCCCCCCCCCCCCCC(=O)O)C(=O)O)NC(=O)[C@H](CO)NC(=O)[C@H](CO)NC(=O)[C@H](Cc1c[nH]cn1)NC(=O)[C@H](Cc1c[nH]cn1)NC(=O)[C@H](CC(C)C)NC(=O)[C@H](Cc1ccccc1)NC(=O)[C@H](CCC(=O)O)NC(=O)[C@H](C)NC(=O)[C@H](CC(C)C)NC(=O)[C@H](CCCNC(=N)N)NC(=O)[C@H](CCC(N)=O)NC(=O)[C@@H](NC(=O)[C@H](C)NC(=O)[C@@H]1CSSC[C@H](NC(=O)[C@@H](N)CCCCN)C(=O)N[C@@H](CC(N)=O)C(=O)N[C@@H]([C@@H](C)O)C(=O)N[C@@H](C)C(=O)N[C@@H]([C@@H](C)O)C(=O)N1)[C@@H](C)O)C(=O)N[C@@H](CC(C)C)C(=O)N[C@@H](CO)C(=O)N1CCC[C@H]1C(=O)N[C@H](C(=O)N[C@@H](CC(N)=O)C(=O)N[C@H](C(=O)NCC(=O)N[C@@H](CO)C(=O)N[C@@H](Cc1c[nH]cn1)C(=O)N[C@H](C(=O)N[C@@H](Cc1ccc(O)cc1)C(N)=O)[C@@H](C)O)C(C)C)[C@@H](C)O` [Example 144, N-epsilon21-[2-(2-{2-[2-(2-{2-[(S)-4-Carboxy-4-(19-carboxyheptadecanoylamino)butyrylamino]ethoxy}ethoxy)acetylamino]ethoxy}ethoxy)acetyl]-[Glu14,His17,Lys21,Ser28,His35]-pramlintide] (H-KCNTATCATQRLAEFLHHSSK([AEEA-AEEA-γGlu-C20 diacid])NFGPILSPTNVGSHTY-NH2; disulfide 2-7), the solubility was greater than 200 µM under setting [1]; greater than 200 µM under setting [2]; greater than 200 µM under setting [3]; greater than 200 µM under setting [4]; 47 µM (≈ 224 µg/mL) under setting [5]; 2 µM (≈ 9.55 µg/mL) under setting [6]. Moreover, the solubility under setting [7] was found to be 1 µM (≈ 4.77 µg/mL) and the solubility under setting [8] stood at 1 µM (≈ 4.77 µg/mL).
For the molecule `CC[C@H](C)[C@H](NC(=O)[C@@H]1CCCN1C(=O)CNC(=O)[C@H](Cc1ccccc1)NC(=O)[C@H](CC(N)=O)NC(=O)[C@H](CCCCNC(=O)COCCOCCNC(=O)COCCOCCNC(=O)CC[C@H](NC(=O)CCCCCCCCCCCCCCCCCCC(=O)O)C(=O)O)NC(=O)[C@H](CO)NC(=O)[C@H](CO)NC(=O)[C@H](Cc1c[nH]cn1)NC(=O)[C@@H](NC(=O)[C@H](CC(C)C)NC(=O)[C@H](Cc1ccccc1)NC(=O)[C@H](CCC(=O)O)NC(=O)[C@H](C)NC(=O)[C@H](CC(C)C)NC(=O)[C@H](CCCNC(=N)N)NC(=O)[C@H](CCC(N)=O)NC(=O)[C@@H](NC(=O)[C@H](C)NC(=O)[C@@H]1CSSC[C@H](NC(=O)[C@@H](N)CCCCN)C(=O)N[C@@H](CC(N)=O)C(=O)N[C@@H]([C@@H](C)O)C(=O)N[C@@H](C)C(=O)N[C@@H]([C@@H](C)O)C(=O)N1)[C@@H](C)O)C(C)C)C(=O)N[C@@H](CC(C)C)C(=O)N[C@@H](CO)C(=O)N[C@@H](CCCNC(=N)N)C(=O)N[C@H](C(=O)N[C@@H](CC(N)=O)C(=O)N[C@H](C(=O)NCC(=O)N[C@@H](CO)C(=O)N[C@@H](Cc1c[nH]cn1)C(=O)N[C@H](C(=O)N[C@@H](Cc1ccc(O)cc1)C(N)=O)[C@@H](C)O)C(C)C)[C@@H](C)O` [Example 147, N-epsilon21-[2-(2-{2-[2-(2-{2-[(S)-4-Carboxy-4-(19-carboxyheptadecanoylamino)butyrylamino]ethoxy}ethoxy)acetylamino]ethoxy}ethoxy)acetyl]-[Glu14,Lys21,Ser28,Arg29,His35]-pramlintide] (H-KCNTATCATQRLAEFLVHSSK([AEEA-AEEA-γGlu-C20 diacid])NFGPILSRTNVGSHTY-NH2; disulfide 2-7), the solubility was greater than 200 µM under setting [1]; greater than 200 µM under setting [2]; greater than 200 µM under setting [3]; greater than 200 µM under setting [4]; 1 µM (≈ 4.79 µg/mL) under setting [5]; 1 µM (≈ 4.79 µg/mL) under setting [6]. Besides, the solubility reads like this: under setting [7], 1 µM (≈ 4.79 µg/mL); under setting [8], 1 µM (≈ 4.79 µg/mL).

Values taken from patent US8722849B2, “Polypeptides” (Novo Nordisk A/S, priority 2011, dated 2014).
